# Results published in the supplement of paper PMC10307832.
# Assays:
# Assay in all cases: relative viability (nuclei count vs DMSO), 5 days (fraction); higher = more cells survive
# [1] = compound: CN(C)C(=N)NC(=N)N [Metformin] + C[C@]1(O)C[C@@H](c2nc(-c3ccc4ccc(-c5ccccc5)nc4c3)c3c(N)nccn32)C1 [Linsitinib] (partner 1 µM)
# Summary of the method: (§1)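 Lung cancer cell lines in 1536-well plates were dosed by pin tool the day after seeding, either with one drug alone or with a fixed anchor-drug dose plus five library-drug doses (not always all listed) in √10 steps. After 5 days, cells were fixed and their nuclei stained in one step (final 0.05% Triton X-100, 1% formaldehyde, 1 ug/ml Hoechst), then counted on 4× images. Relative viability is the nuclei count in treated wells divided by that in vehicle wells. Values are medians of duplicate plates.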
# [2] = compound: N#CC1(c2ccc(NC(=O)c3cccnc3NCc3ccncc3)cc2)CCCC1 [Apatinib] + CCNC(=O)c1noc(-c2cc(C(C)C)c(O)cc2O)c1-c1ccc(CN2CCOCC2)cc1 [Luminespib] (partner 0.01 µM)
# Summary of the method: as §1
# [3] = compound: N#CC1(c2ccc(NC(=O)c3cccnc3NCc3ccncc3)cc2)CCCC1 [Apatinib] + COc1cccc2cc(-c3nc([C@H]4CC[C@H](C(=O)O)CC4)n4ncnc(N)c34)[nH]c12 [OSI-027] (partner 0.5 µM)
# Summary of the method: as §1
# [4] = compound: CN(C)C(=N)NC(=N)N [Metformin] + CC1(C)CCC(c2ccc(Cl)cc2)=C(CN2CCN(c3ccc(C(=O)NS(=O)(=O)c4ccc(N[C@H](CCN5CCOCC5)CSc5ccccc5)c(S(=O)(=O)C(F)(F)F)c4)cc3)CC2)C1 [Navitoclax] (partner 0.5 µM)
# Summary of the method: as §1
cell line,measurement,setting,value
NCI-H460,relative viability,[1]; first compound 31.62 µM,0.772
same,relative viability,[1]; first compound 100 µM,0.774
same,relative viability,[1]; first compound 316.23 µM,0.662
same,relative viability,[1]; first compound 1000 µM,0.843
same,relative viability,[2]; first compound 0.08 µM,0.0389
same,relative viability,[2]; first compound 0.253 µM,0.0355
same,relative viability,[2]; first compound 0.8 µM,0.0311
same,relative viability,[2]; first compound 2.53 µM,0.0328
same,relative viability,[2]; first compound 8 µM,0.0337
same,relative viability,[3]; first compound 0.08 µM,0.799
same,relative viability,[3]; first compound 0.253 µM,0.746
same,relative viability,[3]; first compound 0.8 µM,0.491
same,relative viability,[3]; first compound 2.53 µM,0.541
same,relative viability,[3]; first compound 8 µM,0.333
same,relative viability,[4]; first compound 31.62 µM,1.22
same,relative viability,[4]; first compound 100 µM,1.16
same,relative viability,[4]; first compound 316.23 µM,1.02
same,relative viability,[4]; first compound 1000 µM,1.14
